Values of other authors as cited in US20120141611A1, “METHODS AND COMPOSITIONS USING ERGOTHIONEINE TO TREAT A VARIETY OF HEALTH RELATED FACTORS” (Oxis International Inc., priority 2010, published 2012).
Read-outs that look alike come from different tables or passages of the source.

Legend:
erythrocyte membrane = settings: cited from earlier work
[1] = Fowl; cited from earlier work
human red cell cells = settings: 1 mM, intact human red cells in vitro; cited from earlier work
isolated rat heart = settings: 0.1 mM; cited from earlier work
human platelets = human platelets in vitro; cited from earlier work
hepatic microsomes = settings: NADPH or ascorbic acid challenge; cited from earlier work
glutathione reductase = target: T1, glutathione reductase (Mus musculus, UniProt P47791); settings: mouse liver cytosol fractions; cited from earlier work
T1 construct: glutathione peroxidase and glutathione reductase activities in mouse liver cytosol fractions; from tissue; host or cells: mouse liver cytosol fractions (result quoted from the literature)
T1 sequence (P47791 27-500): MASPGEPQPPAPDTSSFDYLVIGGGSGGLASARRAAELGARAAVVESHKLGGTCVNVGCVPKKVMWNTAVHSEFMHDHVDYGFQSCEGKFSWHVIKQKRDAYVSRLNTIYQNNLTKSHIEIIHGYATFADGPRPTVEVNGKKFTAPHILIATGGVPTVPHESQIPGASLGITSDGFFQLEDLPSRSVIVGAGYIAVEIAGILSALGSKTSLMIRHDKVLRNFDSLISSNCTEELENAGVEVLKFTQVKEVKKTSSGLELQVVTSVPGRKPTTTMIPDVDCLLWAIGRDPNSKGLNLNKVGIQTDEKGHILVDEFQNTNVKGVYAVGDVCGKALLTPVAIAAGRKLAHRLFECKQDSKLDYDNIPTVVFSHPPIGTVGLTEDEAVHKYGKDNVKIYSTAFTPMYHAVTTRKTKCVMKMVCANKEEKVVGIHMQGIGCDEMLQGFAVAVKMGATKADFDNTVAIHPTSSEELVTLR

[2] = cited from earlier work
[3] = rats, 8 mg/100 gm body weight for 7 days pre-administration; cited from earlier work
[4] = cited from earlier work; remark: listed apart in the source
glutathione peroxidase = settings: mouse liver cytosol fractions; cited from earlier work
[5] = physiological concentrations; cited from earlier work
[6] = Sheep; cited from earlier work
[7] = cited from earlier work; remark: listed apart in the source
[8] = cited from earlier work; remark: listed apart in the source

C[N+](C)(C)[C@@H](Cc1c[nH]c(=S)[nH]1)C(=O)[O-] [Ergothioneine, ergothioneine]
Amount directly penetrating the erythrocyte membrane (erythrocyte membrane): < 1% | Concentration of l-ergothioneine in the blood [1]: 2-10 mg/100 ml blood | Glycolytic activity (human red cell cells): significant increase in glycolytic activity | Protection against reperfusion injury as measured by LDH release (isolated rat heart): protected the isolated rat heart against reperfusion injury | CO2 production from pyruvate (human platelets): increases in CO2 production from pyruvate | Production of lactate (human platelets): decreased production of lactate | NADPH-dependent enzymatic lipid peroxidation (hepatic microsomes): inhibits | Glutathione reductase activity (glutathione reductase): markedly increased | Concentration of LE in tissue ([2]; Rabbit, Heart): 2.7 mgs/100 gm fresh tissue | Concentration of LE in tissue ([2]; Rabbit, Kidney): 0.3 mgs/100 gm fresh tissue | Concentration of LE in tissue ([2]; Rabbit, Liver): 0.3 mgs/100 gm fresh tissue | Concentration of LE in tissue ([2]; Rabbit, Lungs): 0.3 mgs/100 gm fresh tissue | Concentration of LE in tissue ([2]; Rabbit, RBC): 10 mgs/100 gm fresh tissue | Concentration of LE in tissue ([2]; Rabbit, Spleen): 1.0 mgs/100 gm fresh tissue | Concentration of LE in tissue ([2]; Rabbit, Testes): 0.1 mgs/100 gm fresh tissue | Concentration of l-ergothioneine in the blood ([2]; Rabbit): 1-10 mg/100 ml blood | Ergothioneine in optic nerves ([2]; optic nerves of the rabbit): 30 µg/g | Hepatic injury after a single injection of ethionine [3]: inhibited | Hepatic lipid peroxide formation [3]: reduced | Concentration of LE in tissue ([4]; Cat, Heart): 0.0 mgs/100 gm fresh tissue | Concentration of LE in tissue ([4]; Cat, Kidney): 3.1 mgs/100 gm fresh tissue | Concentration of LE in tissue ([4]; Cat, Liver): 2.7 mgs/100 gm fresh tissue | Concentration of LE in tissue ([4]; Cat, Lungs): 0.8 mgs/100 gm fresh tissue | Concentration of LE in tissue ([4]; Cat, RBC): 2.9 mgs/100 gm fresh tissue | Concentration of LE in tissue ([4]; Cat, Testes): 0.0 mgs/100 gm fresh tissue | Concentration of l-ergothioneine in the blood ([4]; Cat): 0.5-2 mg/100 ml blood | Ergothioneine in brain ([4]; brains of cats): 3.0 µg/g | Glutathione peroxidase activity (glutathione peroxidase): markedly increased | Protection of API against HOCl-induced inactivation [5]: protect very efficiently | Concentration of l-ergothioneine in the blood [6]: 2-6 mg/100 ml blood | Concentration of l-ergothioneine in the blood ([7]; Man): 1-4 mg/100 ml blood | Levels in human blood cells ([7]; healthy males from Saudi Arabia): 1-4 mg/100 mL | Concentration of l-ergothioneine in the blood ([8]; G. Pig): 1-4 mg/100 ml blood | Ergothioneine in brain ([8]; brains of guinea-pigs): 10 µg/g
